Values of other authors as cited in patent US8155888B2, “Method and apparatus for assessing polypeptide aggregation” (Cambridge University Technical Services Ltd., priority 2003, dated 2012).
Read-outs that look alike come from different tables or passages of the source. Where no end group is shown, it is not given here.

Key:
[1] = not given; remark: listed apart in the source
[2] = not given; remark: listed apart in the source
[3] = mutant versus wild type; growth phase only; from literature data
[4] = Table 1, neutral pH, partition coefficients from water to octanol
[5] = Table 5, neutral pH, partition coefficients from water to octanol
[6] = Table 1, normalised from 0 (high) to 1 (low)
[7] = Table 5, normalized from 0 (high) to 1 (low)

| Compound | hydrophobicity [4] | hydrophobicity [5] | charge ([1]; Table 1, neutral pH) | charge ([1]; Table 5, neutral pH) | β-sheet propensity [2, 6] | β-sheet propensity [2, 7] | observed ln(νmut/νwt) [3] | further results |
| --- | --- | --- | --- | --- | --- | --- | --- | --- |
| L27A: single-point mutation L27A of amylin (KCNTATCATQRLANFLVHSSNNFGAIASSTNVGSNTY; ends and bridges not checked; cysteine pairing not given here; UniProt P10997 34-70, looked up, variant L27A) | – | – | – | – | – | – | −0.93 | – |
| F23A: single-point mutation F23A of amylin (KCNTATCATQRLANFLVHSSNNAGAILSSTNVGSNTY; ends and bridges not checked; cysteine pairing not given here; UniProt P10997 34-70, looked up, variant F23A) | – | – | – | – | – | – | −2.65 | – |
| E22K: E22K mutation of Aβ (amyloid-β peptide) | – | – | – | – | – | – | 0.92 | – |
| O=C(O)[C@@H]1CCCN1 [Pro (P), proline] | -0.237 kcal/mol | -0.99 kcal/mol | 0 | 0 | – | – | – | – |
| A21G: A21G mutation of Aβ (amyloid-β peptide) | – | – | – | – | – | – | −0.07 | – |
| F19T: F19T mutation of Aβ (amyloid-β peptide) | – | – | – | – | – | – | −2.48 | – |
| I26A: single-point mutation I26A of amylin (KCNTATCATQRLANFLVHSSNNFGAALSSTNVGSNTY; ends and bridges not checked; cysteine pairing not given here; UniProt P10997 34-70, looked up, variant I26A) | – | – | – | – | – | – | −2.39 | – |
| N22A: single-point mutation N22A of amylin (KCNTATCATQRLANFLVHSSNAFGAILSSTNVGSNTY; ends and bridges not checked; cysteine pairing not given here; UniProt P10997 34-70, looked up, variant N22A) | – | – | – | – | – | – | 0.69 | – |
| D23N: D23N mutation of Aβ (amyloid-β peptide) | – | – | – | – | – | – | 3.97 | – |
| E22G: E22G mutation of Aβ (amyloid-β peptide) | – | – | – | – | – | – | 2.03 | – |
| G24A: single-point mutation G24A of amylin (KCNTATCATQRLANFLVHSSNNFAAILSSTNVGSNTY; ends and bridges not checked; cysteine pairing not given here; UniProt P10997 34-70, looked up, variant G24A) | – | – | – | – | – | – | −0.03 | – |
| S20G: S20G mutation of amylin (KCNTATCATQRLANFLVHSGNNFGAILSSTNVGSNTY; ends and bridges not checked; cysteine pairing not given here; UniProt P10997 34-70, looked up, variant S20G) | – | – | – | – | – | – | 1.01 | – |
| E22Q: E22Q mutation of Aβ (amyloid-β peptide) | – | – | – | – | – | – | 2.92 | – |
| NCC(=O)O [Gly (G), glycine] | 0 kcal/mol | 0.00 kcal/mol | 0 | 0 | 0.60 | 0.60 | – | – |

The next lines start with results.

| hydrophobicity [4] | hydrophobicity [5] | charge ([1]; Table 1, neutral pH) | charge ([1]; Table 5, neutral pH) | β-sheet propensity [2, 6] | β-sheet propensity [2, 7] | Compound | observed ln(νmut/νwt) [3] | further results |
| --- | --- | --- | --- | --- | --- | --- | --- | --- |
| 0.296 kcal/mol | 1.24 kcal/mol | 0 | 0 | 0.30 | 0.30 | N[C@@H](CO)C(=O)O [Ser (S), serine] | – | – |
| 0.153 kcal/mol | 0.64 kcal/mol | 0 | 0 | 0.37 | 0.37 | N[C@@H](Cc1c[nH]cn1)C(=O)O [His (H), histidine] | – | hydrophobicity (Table 1, value in brackets, pH lower than 6.0, histidine positively charged): 0.686 kcal/mol; hydrophobicity (Table 5, value in brackets, pH lower than 6.0, histidine positively charged): 2.87 kcal/mol; charge ([1]; Table 1, value in brackets, pH lower than 6.0): +1; charge ([1]; Table 5, value in brackets, pH lower than 6.0): +1 |
| 0.457 kcal/mol | 1.91 kcal/mol | 0 | 0 | 0.40 | 0.40 | NC(=O)C[C@H](N)C(=O)O [Asn (N)] | – | – |
| 0.311 kcal/mol | 1.30 kcal/mol | 0 | 0 | 0.34 | 0.34 | NC(=O)CC[C@H](N)C(=O)O [Gln (Q)] | – | – |
| -0.0932 kcal/mol | -0.39 kcal/mol | 0 | 0 | 0.47 | 0.47 | C[C@H](N)C(=O)O [Ala (A)] | – | – |
| – | -1.30 kcal/mol | 0 | 0 | 0.13 | 0.13 | CC(C)[C@H](N)C(=O)O [Val (V)] | – | – |
| -0.229 kcal/mol | -0.96 kcal/mol | 0 | 0 | 0.26 | 0.26 | CSCC[C@H](N)C(=O)O [Met (M)] | – | – |
| -0.543 kcal/mol | -2.27 kcal/mol | 0 | 0 | 0.13 | 0.13 | N[C@@H](Cc1ccccc1)C(=O)O [Phe (F), phenylalanine] | – | – |
| -0.351 kcal/mol | -1.47 kcal/mol | 0 | 0 | 0.11 | 0.11 | N[C@@H](Cc1ccc(O)cc1)C(=O)O [Tyr (Y)] | – | – |
| -0.0598 kcal/mol | -0.25 kcal/mol | 0 | 0 | 0.25 | 0.25 | N[C@@H](CS)C(=O)O [Cys (C)] | – | – |
| 0.239 kcal/mol | 1.00 kcal/mol | 0 | 0 | 0.06 | 0.06 | C[C@@H](O)[C@H](N)C(=O)O [Thr (T)] | – | – |
| 0.911 kcal/mol | 3.81 kcal/mol | −1 | −1 | 0.72 | 0.72 | N[C@@H](CC(=O)O)C(=O)O [Asp (D), aspartic acid] | – | – |
| -0.435 kcal/mol | -1.82 kcal/mol | 0 | 0 | 0.10 | 0.10 | CC[C@H](C)[C@H](N)C(=O)O [Ile (I)] | – | – |
| – | – | −1 | −1 | 0.35 | 0.35 | N[C@@H](CCC(=O)O)C(=O)O [Glu (E), glutamic acid] | – | – |
